Values after ≈ are worked out from the molar mass of the structure shown.
Columns and labels:
E. coli = experiment: Antibacterial activity, minimum inhibitory concentration; type: cell-based; parameters: key: R: resistant; S: sensitive
Experimental: (§1) The prepared azo derivatives were screened for their antibacterial activity against six bacterial strains obtained from hospital isolates i.e. gram positive (S. aureus, S. aureus (DR)) and gram-negative (E. coli, P. aeruginosa, P. aeruginosa (DR), P. vulgaris). All the strains were confirmed by biochemical identification and drug susceptibility methods. The antibacterial evaluation was done by agar disc diffusion method[39]^,[40] and MIC was determined. In summary, a 48-h old inoculum having ∼0.48 OD600, of the above-mentioned bacterial strains was spread on the solidified trypticase soy agar media and Whatman no. 1 filter paper discs (5 mm in diameter) soaked with the title compounds (10 µL/disc of 10 mg/mL) were placed on the plates. Ampicillin and moxifloxacin were used as positive controls and DMSO as negative control respectively.

P. vulgaris = experiment: as above; type: cell-based; parameters: key: R: resistant; S: sensitive
Experimental: as §1

P. aeruginosa (DS) = experiment: as above; type: cell-based; parameters: key: R: resistant; S: sensitive
Experimental: as §1

S. aureus (DR) = experiment: as above; type: cell-based; parameters: key: R: resistant; S: sensitive
Experimental: as §1

P. aeruginosa (DR) = experiment: as above; type: cell-based; parameters: key: R: resistant; S: sensitive
Experimental: as §1

S. aureus (DS) = experiment: as above; type: cell-based; parameters: key: R: resistant; S: sensitive
Experimental: as §1

α-glucosidase = experiment: In vitro α-glucosidase inhibition assay (pNPG substrate); type: biochemical, Saccharomyces Cerevisiae; conditions: for IC50: means ± SEM of triplicate
Experimental: The α-glucosidase inhibition assay was performed as described previously. In summary, the stock solution of the enzyme from Saccharomyces Cerevisiae (0.2 U/mL) was prepared in 0.05 M sodium phosphate buffer pH 6.8. […] After incubation, 10 µL of the substrate, p-nitrophenyl α-D-glucopyranoside (pNPG, 5 mM solution in 0.05 M phosphate buffer) was added to the aboveprepared mixture and incubated again under the same experimental conditions. The reaction was stopped with the addition of 0.1 M Na2CO3 and OD405 was taken by a 96-well ELISA reader. The experiment was performed in triplicate.

[1] = system: screened pathogens (S. aureus, P. aeruginosa, E. coli and P. vulgaris); experiment: Antibacterial activity, average MIC over screened pathogens; type: cell-based
Experimental: as §1, with “All the strains were confirmed by biochemical identification and drug susceptibility methods.” left out, “plates.” for “plates. Ampicillin and moxifloxacin were used as positive controls and DMSO as negative control respectively.”

Molecule	Minimum inhibitory concentration: sensitive/resistant (E. coli; 125 µg/200 µL)	Minimum inhibitory concentration: sensitive/resistant (E. coli; 250 µg/200 µL)	Minimum inhibitory concentration: sensitive/resistant (P. vulgaris; 125 µg/200 µL)	Minimum inhibitory concentration: sensitive/resistant (P. vulgaris; 250 µg/200 µL)	Minimum inhibitory concentration: sensitive/resistant (P. aeruginosa (DS); 125 µg/200 µL)	Minimum inhibitory concentration: sensitive/resistant (P. aeruginosa (DS); 250 µg/200 µL)	Minimum inhibitory concentration: sensitive/resistant (S. aureus (DR); 125 µg/200 µL)	Minimum inhibitory concentration: sensitive/resistant (S. aureus (DR); 250 µg/200 µL)	Minimum inhibitory concentration: sensitive/resistant (P. aeruginosa (DR); 125 µg/200 µL)	Minimum inhibitory concentration: sensitive/resistant (P. aeruginosa (DR); 250 µg/200 µL)	Minimum inhibitory concentration: sensitive/resistant (S. aureus (DS); 125 µg/200 µL)	Minimum inhibitory concentration: sensitive/resistant (S. aureus (DS); 250 µg/200 µL)	% Inhibition (α-glucosidase; 15.62 µg/mL) [%]	% Inhibition (α-glucosidase; 31.2 µg/mL) [%]	% Inhibition (α-glucosidase; 125 µg/mL) [%]	% Inhibition (α-glucosidase; 250 µg/mL) [%]	IC50 (α-glucosidase) [µg/mL]	MIC (average value) [1] [µg/200 µL]
4-((2-chloropyridin-3-yl)diazenyl)naphthalen-2-ol [TR-9]	R	R	R	R	R	S	S	S	R	R	R	R	22	39	63	78	54.4 ± 3.3	–
C[C@H]1O[C@H](O[C@H]2[C@H](O)[C@@H](O)[C@@H](O[C@H]3[C@H](O)[C@@H](O)C(O)O[C@@H]3CO)O[C@@H]2CO)[C@H](O)[C@@H](O)[C@@H]1N[C@H]1C=C(CO)[C@@H](O)[C@H](O)[C@H]1O (stereo partly drawn) [Acarbose, reference compound]	–	–	–	–	–	–	–	–	–	–	–	–	40	62	85	92	–	–
CC1(C)S[C@@H]2[C@H](NC(=O)[C@H](N)c3ccccc3)C(=O)N2[C@H]1C(=O)O [Ampicillin, reference compound]	S	S	S	S	S	S	–	–	–	–	S	S	–	–	–	–	–	62.5
COc1c(N2C[C@@H]3CCCN[C@@H]3C2)c(F)cc2c(=O)c(C(=O)O)cn(C3CC3)c12 [Moxifloxacin, reference compound]	–	–	–	–	–	–	S	S	S	S	–	–	–	–	–	–	–	–
O=[N+]([O-])c1ccc(/N=N/c2ccc(O)c3ccccc23)cc1 [TR-2, (E)-4-((4-nitrophenyl)diazenyl)naphthalen-1-ol]	R	S	R	R	R	S	S	S	R	R	R	R	16	30	55	60	110.2 ± 7.8 (≈ 376 µM)	–
(E)-4-(p-tolyldiazenyl)benzene-1,3-diol [TR-6]	R	S	S	S	S	S	S	S	R	R	S	S	22	38	63	87	53.7 ± 3.2	125

From publication PMC8274517, “Diaryl azo derivatives as anti-diabetic and antimicrobial agents: synthesis, in vitro, kinetic and docking studies” (Journal of Enzyme Inhibition and Medicinal Chemistry, 2021)
